Measured values reported in patent US12492170B2, “Tetrahydro-1H-benzazepine compound as potassium channel modulator, preparation method and use thereof” (Shanghai Zhimeng Biopharma Inc., priority 2019, dated 2025).
Like-named read-outs stand apart in the source and are kept apart here.

Tests used:
[1] = tested on: SD rats; test: Safety research: single tail vein injection toxicity, maximum tolerated dose; assay type: in vivo; conditions: male SD rats; for Maximum tolerated dose: observed 48 hours
Procedure: (§1) Male Sprague-Dawley (SD) rats (SPF grade) were selected, divided into groups (3 rats per group), and administered via tail vein injection. Single administration, observed for 48 hours after administration. During the experiment, two cage-side observations and two detailed clinical observations were performed every day (observation was carried out before and 2 hours after the administration on the day of administration). Toxicity study animals were weighed and recorded every day, and food consumption of each animal for 24±1 hours was measured and recorded every day. At the end of the experiment (D3), euthanasia was performed by carbon dioxide inhalation anesthesia and the death of the animal was ensured by abdominal aorta/venous bleeding, and gross anatomy was performed and recorded.

[2] = as above; assay type: in vivo; conditions: rat, in vivo, male SD rats, observed 48 hours
Procedure: as §1

[3] = Pharmacokinetics and cerebral blood ratio after single administration in male ICR mice; assay type: in vivo; conditions: for AUC(0-inf) / AUC(0-t) / Cmax / half-life / Tmax: plasma
Procedure: Take a healthy male ICR mouse (weight range: 18-22 grams in), grouping, 24 mice/group, and 3 mice/time point, fasting for more than 12 hours (only oral administration group), administration, blood was collected by cardiac puncture at time points 0.083 (only iv), 0.25, 0.5, 1, 2, 4, 6 (only po), 8 and 24 hours, at least 0.3 mL of whole blood was collected to EDTA-K2 anti-coagulation tube, within half an hour, plasma was taken by centrifuge (6000 revolutions, 8 minutes, 4° C.), frozen at −20° C. for later use. At the same time, brain tissue was collected in the oral group. After being rinsed with the physiological saline, the water absorbing paper was used to dry, weighed, and frozen at −20° C. for later use.

[4] = molecular target: T1, KCNQ2 potassium channel (Homo sapiens, UniProt O43526); test: Potassium ion channel opener activity test (FDSS/μCELL detection, FluxOR); assay type: cell-based
T1 construct: expressed in transfected cells; host or cells: CHO (CHO-KCNQ2, kept under G418 selection)
Procedure: After the digestion was completed, 7 mL culture medium (90% DMEM/F12+10% FBS+500 μg/mL G418) was added to neutralize, centrifugated for 3 minutes at 800 rpm, the supernatant was aspirated, then 5 mL culture medium was added to resuspend, and then the cells were counted.
Cell plating: the density to 3×10^4/well was adjusted according to the results of cell counting. After standing at room temperature for 30 minutes, placed in a 37° C. CO2 incubator and incubated overnight for 16-18 hours. The cell density reached about 80%.
Fluorescent dye incubation: discarded the cell culture medium, 80 μL/well loading buffer was added, and incubated in the dark at room temperature for 60 minutes.
Compound incubation: discarded the loading buffer, 80 μL/well prepared compound solution was added, incubated in the dark at room temperature for 20 minutes.
Fluorescence data collection: FDSS/μCELL instrument was used for real-time fluorescence signal recording, excitation wavelength was 480 nm, emission wavelength was 540 nm, recorded 1 times per second, recorded for 10 seconds after baseline and started to add 20 μL/well stimulation buffer, and then continued to record until the end of 180 seconds.
20 mM compound stock solution in DMSO was prepared, 10 μL of 20 mM compound stock solution was took into 20 μL DMSO solution, serially diluted 3 times to 8 intermediate concentrations; then the intermediate concentrations of the compound were took to the test buffer, diluted 200 times to get the final concentration to be tested, 80 μL was took and added to the test plate.
Each concentration set 3 duplicates.
The excitement effect of the compound was calculated by the following formula: […]

[5] = CHO-KCNQ2 cells, fluorescence, FDSS/μCELL, read-out: EC50

Cc1cc2c(c(C)c1NC(=O)CC(C)(C)C)CCN2Cc1ccc(F)cc1 [Compound B2, reference compound]
toxicity ([1]; dose of 1 mg/kg): unacceptable toxicity | MTD at 48 h [2]: 0.3 to 1 mg/kg

Cc1cc2c(c(C)c1NC(=O)CC(C)(C)C)CCCCN2Cc1ccc(F)cc1 [Compound A1, N-(1-(4-fluorobenzyl)-6,8-dimethyl-2,3,4,5-tetrahydro-1H-benzazepine-7-yl)-3,3-dimethylbutanamide]
Maximum tolerated dose [1]: MTD > 1 mg/kg | F ([3]; gavage 1 mg/kg vs intravenous 0.3 mg/kg): 56.9% | AUC(0-inf) ([3]; mouse, intravenous 0.3 mg/kg): 74 ng·h/mL | AUC(0-t) ([3]; mouse, intravenous 0.3 mg/kg): 73 ng·h/mL | Cmax ([3]; mouse, intravenous 0.3 mg/kg): 110 ng/mL | half-life ([3]; mouse, intravenous 0.3 mg/kg): 319 min | AUC(0-inf) ([3]; mouse, po, gavage 1 mg/kg): 139 ng·h/mL | AUC(0-t) ([3]; mouse, po, gavage 1 mg/kg): 138 ng·h/mL | Cmax ([3]; mouse, po, gavage 1 mg/kg): 94.4 ng/mL | Tmax ([3]; mouse, po, gavage 1 mg/kg): 30 min | half-life ([3]; mouse, po, gavage 1 mg/kg): 325 min | EC50 [4]: 83 nM

C#CC(C)(C)CC(=O)Nc1c(C)cc2c(c1C)CCCCN2Cc1ccc(F)cc1 [Compound A4, N-(1-(4-fluorobenzyl)-6,8-dimethyl-2,3,4,5-tetrahydro-1H-benzazepine-7-yl)-3,3-dimethylpent-4-ynamide]
F ([3]; gavage 2.5 mg/kg vs intravenous 0.5 mg/kg): 43.39% | Kp at 1 h ([3]; mouse, brain, single oral 2.5 mg/kg, 1 h): 1.1 | Kp at 2 h ([3]; mouse, brain, single oral 2.5 mg/kg, 2 h): 1.1 | Kp at 4 h ([3]; mouse, brain, single oral 2.5 mg/kg, 4 h): 1.3 | Kp at 8 h ([3]; mouse, brain, single oral 2.5 mg/kg, 8 h): 1.1 | AUC(0-inf) ([3]; mouse, intravenous 0.5 mg/kg): 255 ng·h/mL | AUC(0-t) ([3]; mouse, intravenous 0.5 mg/kg): 235 ng·h/mL | Cmax ([3]; mouse, intravenous 0.5 mg/kg): 294 ng/mL | half-life ([3]; mouse, intravenous 0.5 mg/kg): 114 min | AUC(0-inf) ([3]; mouse, po, gavage 2.5 mg/kg): 541 ng·h/mL | AUC(0-t) ([3]; mouse, po, gavage 2.5 mg/kg): 510 ng·h/mL | Cmax ([3]; mouse, po, gavage 2.5 mg/kg): 257 ng/mL | Tmax ([3]; mouse, po, gavage 2.5 mg/kg): 30 min | half-life ([3]; mouse, po, gavage 2.5 mg/kg): 117 min | EC50 [4, 5]: 165 nM

Cc1cc2c(c(C)c1NC(=O)CC(C)(C)C)CCCN2Cc1ccc(F)cc1 [Compound B1, reference compound]
toxicity ([1]; dose of 0.3 mg/kg): unacceptable toxicity | MTD at 48 h [2]: 0.06 to 0.3 mg/kg

Cc1cc2c(c(C)c1NC(=O)CC(C)(C)C)CCCCN2Cc1ccc(F)s1 [Compound A7, N-(1-((5-fluorothiophene-2-yl)methyl)-6,8-dimethyl-2,3,4,5-tetrahydro-1H-benzazepine-7-yl)-3,3-dimethylbutamide]
Maximum tolerated dose [1]: MTD > 1 mg/kg | EC50 [4]: 16 nM

Cc1cc2c(c(C)c1NC(=O)CCC1CCCC1)CCCCN2Cc1ccc(F)cc1 [Compound A2, 3-cyclopentyl-N-(1-(4-fluorobenzyl)-6,8-dimethyl-2,3,4,5-tetrahydro-1H-benzazepine-7-yl)propionamide]
Maximum tolerated dose [1]: MTD > 1 mg/kg | EC50 [4]: 37 nM

Cc1cc2c(c(C)c1NC(=O)CC(C)(C)C)CCCCN2Cc1ccc(Cl)s1 [Compound A6, N-(1-((5-chlorothiophene-2-yl)methyl)-6,8-dimethyl-2,3,4,5-tetrahydro-1H-benzazepine-7-yl)-3,3-dimethylbutamide]
Maximum tolerated dose [1]: MTD > 1 mg/kg | EC50 [4]: 21 nM

Cc1cc2c(c(C)c1NC(=O)CCC1CCCC1)CCCCN2Cc1ccc(F)s1 [Compound A8, 3-cyclopentyl-N-(1-((5-fluorothiophene-2-yl)methyl)-6,8-dimethyl-2,3,4,5-tetrahydro-1H-benzazepine-7-yl)propionamide]
Maximum tolerated dose [1]: MTD > 1 mg/kg | EC50 [4]: 48 nM

CCCC(=O)Nc1c(C)cc2c(c1C)CCCCN2Cc1ccc(F)cc1 [Compound A3, N-(1-(4-fluorobenzyl)-6,8-dimethyl-2,3,4,5-tetrahydro-1H-benzazepine-7-yl)butanamide]
EC50 [4, 5]: 271 nM

Cc1cc2c(c(C)c1NC(=O)CC1(C)CC1)CCCCN2Cc1ccc(F)cc1 [Compound A5, N-(1-(4-fluorobenzyl)-6,8-dimethyl-2,3,4,5-tetrahydro-1H-benzazepine-7-yl)-2-(1-methylcyclopropyl)acetamide]
EC50 [4, 5]: 133 nM
